Earlier results as cited in patent US20220211667A1, “COMPOSITION FOR THE INTRAPERITONEAL TREATMENT OF SECONDARY BACTERIAL PERITONITIS WITH REDUCTION OF COMPLICATIONS” (priority 2019, published 2022).

Columns and labels:
[1] = test system: polymorphonuclear leukocytes
[2] = test system: Pseudomonas aeruginosa; settings: maximum, for Pseudomonas aeruginosa; controlled clinical trials, oral or intravenous
[3] = test system: strains of organisms from the susceptible genera
[4] = test system: resistant bacterial strains; settings: overall; controlled clinical trials, oral or intravenous
[5] = not given; remark: listed apart in the source
[6] = intraperitoneal; third and last day of treatment

Q: Which eosinophilia (evidence of allergy) does the source give for `C[C@@H]1O[C@@H]1P(=O)(O)O` [fosfomycin, [(2R,3S)-3-methyloxiran-2-yl]phosphonic acid] here?
A: 0.2%

Q: What about the transient rashes (evidence of allergy) of the same molecule?
A: 0.3 % of cases

Q: What about the “transiently raised liver enzymes” value (in vivo) of the same molecule?
A: 0.3 % of cases

Q: What about the “concentration in polymorphonuclear leukocytes relative to extracellular fluid” value [1] of the same molecule?
A: twice those of the extracellular fluid

Q: What about the “appearance of resistant bacterial strains” value [2] of the same molecule?
A: 15%

Q: And the “tested strains showing synergistic effect” value ([3]; early studies, various antibiotic combinations)?
A: 70-100%

Q: What about the synergy rates ([3]; subsequent more extensive studies) of the same molecule?
A: 36-74%

Q: And the “appearance of resistant bacterial strains” value [4]?
A: 3.0%

Q: For `C[C@@H]1O[C@@H]1P(=O)(O)O.NC(CO)(CO)CO` [Fosfomycin trometamol], which solubility in water [5] is on record?
A: highly soluble in water

Q: And the “pH of 5% solution” value [5]?
A: 3.5-5.5

Q: With “GM-CSF: cytokine of the colony-stimulating factor family; mature human protein of 127 amino-acid residues, SEQ ID NO: 1” as the molecule, how does the “patients with minor flu-like symptoms” value [6] read?
A: 2 of 8

Q: With `C[C@@H]1O[C@@H]1P(=O)(O)O` [Fosfomycin disodium] as the molecule, how does the solubility in water [5] read?
A: highly soluble in water

Q: And the “pH of 5% solution” value [5]?
A: 9.0-10.5
